Measured values published in patent US4210639A, “5'-Deoxy-5'-(isobutylthio)-3-deazaadenosine, method of making same and its antiviral effect on Rous sarcoma virus and Gross murine leukemia virus” (The United States of America as represented by the …, priority 1978, dated 1980).
Entries after “also recorded” stand apart in the source; their conditions may differ. Read-outs that look alike come from different tables or passages of the source.

Experiments:
RSV-BH = experiment: Focus formation (oncogenic transformation) by RSV-BH in chick embryo cells; format: cell-based; conditions: for inhibition at 30 µM / inhibition at 100 µM: Gallus gallus
Procedure: Additionally, the ability of these compounds to inhibit the oncogenic transformation of chick embryo cells induced by RSV-BH was examined.
*Compounds were added 18 h after infection and foci were counted 7 days

AdoHcy hydrolase [1] = target: T1, AdoHcy hydrolase (Bos taurus, UniProt Q3MHL4); experiment: Inhibition of AdoHcy hydrolase from cow liver; format: biochemical; conditions: for IC50: read-out: I50
T1 construct: AdoHcy hydrolase from cow liver; from tissue; host or cells: cow liver
T1 sequence (Q3MHL4 2-432 limits assumed): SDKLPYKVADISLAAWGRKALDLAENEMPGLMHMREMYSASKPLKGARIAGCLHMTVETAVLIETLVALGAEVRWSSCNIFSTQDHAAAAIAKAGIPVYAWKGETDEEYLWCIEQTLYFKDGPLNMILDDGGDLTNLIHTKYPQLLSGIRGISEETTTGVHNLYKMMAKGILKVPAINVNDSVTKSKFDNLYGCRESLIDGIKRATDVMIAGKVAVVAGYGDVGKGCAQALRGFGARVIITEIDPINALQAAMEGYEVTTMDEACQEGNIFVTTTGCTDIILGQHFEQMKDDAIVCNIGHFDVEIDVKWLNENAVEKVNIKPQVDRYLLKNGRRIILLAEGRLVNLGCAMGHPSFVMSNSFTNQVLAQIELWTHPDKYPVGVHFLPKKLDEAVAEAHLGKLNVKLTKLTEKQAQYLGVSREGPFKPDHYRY

cells = experiment: Tolerance by cells; format: cell-based
methyltransferases = conditions: AdoMet-utilizing methyltransferases; cited from earlier work
chick embryo cells = experiment: Effects on host chick embryo cells; format: cell-based; conditions: 0.1 mM
oncogenic virus = experiment: Oncogenic virus-induced malignant transformation / viral replication, general statements; format: cell-based
AdoHcy hydrolase [2] = experiment: Hydrolysis of the compound by AdoHcy hydrolase; format: biochemical
Gross MLV = experiment: Replication of Gross MLV in mouse embryo cells (UV-XC plaque assay); format: cell-based, Swiss mouse
Procedure: (§1) Each point represents the mean number of UV-XC plaques per culture (triplicate assays)± the standarad deviation. The drug was dissolved in DMSO at the time of virus inoculation and was present throughout the incubation period. (B) Effect of treatment on the multiplication of host cells after 4 days exposure to drug. Each point represents the mean number of viable mouse embryo cells per culture ± the standard deviation. The initial number of cells plated was 3.5×10^5 cells.
(§2) The ability of 5'-deoxy-5'-(isobutylthio)-3-deazaadenosine to inhibit replication of Gross MLV in mouse embryo cells was tested. […] The selectivity ratio (i.e., the highest noncytotoxic concentration of drug over the lowest effective concentration of drug) was about 10.

mouse embryo cells = experiment: Multiplication/cytotoxicity of mouse embryo host cells after 4 days exposure; format: cell-based, Swiss mouse; conditions: 30 to 100 μM
Procedure: as §1, §2

[3] = 0.03 mM, added 18 h after infection, counted 7 days later
[4] = 0.1 mM, added 18 h after infection, counted 7 days later
[5] = 0.1 mM, added 18 h after infection, counted 7 days later, read-out: % Inhibition of focus formation
[6] = AdoHcy hydrolase from cow liver
[7] = non-competitive inhibition of AdoHcy hydrolase
[8] = 168 h, read-out: Reduction of focus formation in RSV-BH infected cells

SMILES | Effect on focus formation / RSV activity (in words) (RSV-BH) | No. of Foci (RSV-BH; [3]) | No. of Foci (RSV-BH; [4]) | inhibition at 30 µM (RSV-BH; [3]) [%] | inhibition at 100 µM (RSV-BH; [5]) [%] | Inhibition of AdoHcy hydrolase (in words) (AdoHcy hydrolase [1]) | IC50 (AdoHcy hydrolase [1]; [6]) [µM] | Type of inhibition of AdoHcy hydrolase (AdoHcy hydrolase [1]) | other results
Nc1nccc2c1ncn2[C@@H]1O[C@H](CSCC[C@H](N)C(=O)O)[C@@H](O)[C@H]1O [3-Deazaadenosylhomocysteine] | Neither 3-deaza-AdoHcy nor 9-[5'-deoxy-5'-(methylthio)- β-D-arabinofuranosyl]adenine had any significant effect on focus formation | 330 | 276 | 0 | 16 |  |  |  | 
CC(C)CSC[C@H]1O[C@@H](n2cnc3c(N)ncnc32)[C@H](O)[C@@H]1O [5'-deoxy-5'-S-isobutyladenosine] |  |  |  |  |  | potent inhibitors of AdoHcy hydrolase | > 1000 |  | Tolerance by cells (cells): well tolerated by cells
Nc1ncnc2c1ncn2[C@@H]1O[C@H](CSCC[C@H](N)C(=O)O)[C@@H](O)[C@H]1O [Adenosylhomocysteine, S-adenosyl-L-homocysteine] |  |  |  |  |  |  |  |  | Inhibition of methyltransferases (methyltransferases): inhibit competitively most of the methyltransferases; also recorded: competitive inhibitor
Nc1ncnc2c1ncn2[C@@H]1O[C@H](CNCCC(N)C(=O)O)[C@@H](O)[C@H]1O (stereo partly drawn) [Nγ-adenosyl-α,γ-diamino-butyric acid] |  |  |  |  |  |  | 140 | non-competitive | Ki (AdoHcy hydrolase [1]; [7]): 300 µM
Nc1nccc2c1ncn2[C@@H]1O[C@H](CO)[C@@H](O)[C@H]1O [3-Deazaadenosine, 4-amino-1-β-D-ribofuranosyl [4,5-c]pyridine] |  | 106 | 17 | 68 | 95 | most potent inhibitor of AdoHcy hydrolase |  | competitive inhibitor | IC50 (AdoHcy hydrolase [1]; AdoHcy hydrolase): 8 µM; Ki (AdoHcy hydrolase [1]; competitive inhibition of AdoHcy hydrolase): 3 µM; Potency relative to 5'-deoxy-5'-S-isobutyl-adenosine as inhibitor of AdoHcy hydrolase (AdoHcy hydrolase [1]; nearly 100-fold more potent than 5'-deoxy-5'-S-isobutyl-adenosine): ~100 fold; Effect on oncogenic transformation induced by Rous sarcoma virus and on its infectivity (RSV-BH): powerful, although reversible, effect; Sensitivity to drug by phase of virus replication (RSV-BH): maximal during the phase of virus replication which required the synthesis of viral mRNA and protein; inhibition at 100 µM (RSV-BH; [8]): 95%; Effects on the host cells (chick embryo cells): without noticeable effects on the host cells; Ability to inhibit viral replication, compared between the two compounds (oncogenic virus): almost equal
CC(C)CSC[C@H]1O[C@@H](n2cnc3c(N)nccc32)[C@H](O)[C@@H]1O [5'-Deoxy-5'-(isobutylthio)-3-deazaadenosine] | good antiviral; also recorded: just as effective as 3-deazaadenosine itself; also recorded: has shown activity | 93 | 3 | 72 | 99 | potent inhibitors of AdoHcy hydrolase; also recorded: good activity | 280 | non-competitive inhibitor | Type of inhibition of AdoHcy hydrolase (AdoHcy hydrolase [1]; listed as 5'-deoxy-(isobutylthio)-3-deazaadenosine): non-competitive; Ki relative to the Ki of 3-deazaadenosine (AdoHcy hydrolase [1]; times higher than Ki of 3-deazaadenosine): about 100 times; Hydrolysis by AdoHcy hydrolase (AdoHcy hydrolase [2]): not to be hydrolyzed; inhibition at 100 µM (RSV-BH; [8]): 95%; Effects on the host cells (chick embryo cells): without noticeable effects on the host cells; inhibition at 3 µM (Gross MLV; 3 μM, Gross MLV in mouse embryo cells, read-out: Inhibition of plaque formation in the indicator XC cells): 85%; Inhibition of virus replication (in words) (Gross MLV; 30 to 100 μM, Gross MLV in mouse embryo cells): Complete inhibition; Selectivity ratio (highest noncytotoxic concentration over lowest effective concentration) (Gross MLV; Gross MLV in mouse embryo cells): about 10; Antiviral activity against Gross murine leukemia virus (in words) (Gross MLV; mouse embryo cells): good antiviral; also recorded: has shown activity; Cytotoxicity (mouse embryo cells): cytotoxicity was observed; Ability to inhibit viral replication, compared between the two compounds (oncogenic virus): almost equal; Reversal of malignant transformation induced by oncogenic virus (oncogenic virus): will reverse the malignant transformation; Tolerance by cells (cells): well tolerated by cells
CSC[C@H]1O[C@@H](n2cnc3c(N)ncnc32)[C@@H](O)[C@@H]1O [9-[5'-deoxy-5'-(methylthio)-β-D-arabinofuranosyl]-adenine] | Neither 3-deaza-AdoHcy nor 9-[5'-deoxy-5'-(methylthio)- β-D-arabinofuranosyl]adenine had any significant effect on focus formation | 274 | 298 | 17 | 9 |  | 430 | non-competitive | Ki (AdoHcy hydrolase [1]; [7]): 500 µM
